According to patent publication US8846933B2, “N-link hydroxamic acid derivatives useful as antibacterial agents” (Pfizer Inc., priority 2009, dated 2014):

How the values were obtained:
Type in all cases: cell-based
[1] = test system: Acinetobacter baumanii/haemolyticus: Multidrug-resistant clinical isolate (AB-3167); experiment: MIC determination (CLSI), strain AB-3167; details: unit assumed
Protocol: The in vitro antibacterial activity of compounds described in the Examples was evaluated by minimum inhibitory concentration (MIC) testing according to Clinical and Laboratory Standards Institute (CLSI, formerly NCCLS) guidelines. See: Clinical and Laboratory Standards Institute. Methods for Dilution Antimicrobial Susceptibility Tests for Bacteria that Grow Aerobically; Approved Standard-Seventh Edition. CLSI document M7-A7 [ISBN 1-56238-587-9]. Clinical and Laboratory Standards Institute, 940 West Valley Road, Suite 1400, Wayne, Pa. 19087-1898 USA, 2006; also Clinical and Laboratory Standards Institute. Performance Standards for Antimicrobial Susceptibility Testing; Eighteenth Informational Supplement. CLSI document M100-S18 [ISBN1-56238-653-0].Clinical and Laboratory Standards Institute.
The following bacterial strains were used in these MIC determinations:
2) Acinetobacter baumanii/haemolyticus: Multidrug-resistant clinical isolate labeled as AB-3167 in Tables 4 and 5;

[2] = test system: Pseudomonas aeruginosa UI-18: Wild-type (PA-7); experiment: MIC determination (CLSI), strain PA-7; details: Pseudomonas aeruginosa UI-18, wild-type; unit assumed
Method in brief: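 Strain tested was P. aeruginosa UI-18, a wild-type isolate labelled PA-7. Minimum inhibitory concentrations followed CLSI dilution methodology for aerobically growing bacteria (M7-A7, M100-S18).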

[3] = test system: Escherichia coli EC-1: VOGEL, mouse virulent; experiment: MIC determination (CLSI), strain EC-1; details: Escherichia coli EC-1, VOGEL, mouse virulent; unit assumed
Method in brief: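 The mouse-virulent VOGEL isolate of E. coli, EC-1, served as test organism. Minimum inhibitory concentration was measured by CLSI dilution methodology (M7-A7; M100-S18 standards).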

Row | Structure (SMILES) | AB-3167 (MIC) [1] [µg/mL] | PA-7 (MIC) [2] [µg/mL] | EC-1 (MIC) [3] [µg/mL]
1 | C[C@@](CCn1ccc(C2=CCCCCC2)cc1=O)(C(=O)NO)S(C)(=O)=O [Example 68-L, (2R)-4-(4-cyclohept-1-en-1-yl-2-oxopyridin-1(2H)-yl)-N-hydroxy-2-methyl-2-(methylsulfonyl)butanamide] | > 64 | 1 | 2
2 | C[C@@](CCn1ccc(-c2ccc(OC[C@H]3CC[C@H](O)CC3)cc2F)cc1=O)(C(=O)NO)S(C)(=O)=O [Example 10, (2R)-4-[4-{2-fluoro-4-[(trans-4-hydroxycyclohexyl)methoxy]phenyl}-2-oxopyridin-1(2H)-yl]-N-hydroxy-2-methyl-2-(methylsulfonyl) butanamide] | > 64 | 1 | 0.25
3 | CC(C)(O)C1CC(Oc2ccc(-c3ccn(CC[C@](C)(C(=O)NO)S(C)(=O)=O)c(=O)c3)cc2)C1 (stereo partly drawn) [Example 10-H, (2R)-N-hydroxy-4-[4-(4-{[3-(1-hydroxy-1-methylethyl)cyclobutyl]oxy}phenyl)-2-oxopyridin-1(2H)-yl]-2-methyl-2-(methylsulfonyl)butanamide] | > 64 | 2 | 1
4 | C[C@@](CCn1ccc(-c2ccc(OCCCC#N)cc2)cc1=O)(C(=O)NO)S(C)(=O)=O [Example 10-C, (2R)-4-{4-[4-(3-cyanopropoxy)phenyl]-2-oxopyridin-1(2H)-yl}-N-hydroxy-2-methyl-2-(methylsulfonyl)butanamide] | > 64 | 1 | 0.5
5 | Cc1cc(-c2ccn(CC[C@](C)(C(=O)NO)S(C)(=O)=O)c(=O)c2)ccc1-c1cc(CO)no1 [Example 63, N-Hydroxy-4-[4-{4-[3-(hydroxymethyl)isoxazol-5-yl]-3-methylphenyl}-2-oxopyridin-1(2H)-yl]-2-methyl-2-(methylsulfonyl)butanamide] | > 64 | 4 | 2
6 | C[C@@](CCn1ccc(-c2ccc(F)c(F)c2F)cc1=O)(C(=O)NO)S(C)(=O)=O [Example 50, (2R)-N-hydroxy-2-methyl-2-(methylsulfonyl)-4-[2-oxo-4-(2,3,4-trifluorophenyl)pyridin-1(2H)-yl]butanamide] | 64 | 0.5 | 0.5
7 | CC1(O)CCC(Oc2ccc(-c3ccn(CC[C@](C)(C(=O)NO)S(C)(=O)=O)c(=O)c3)cc2)CC1 (stereo partly drawn) [Example 10-G, (2R)-N-hydroxy-4-[4-{4-[(4-hydroxy-4-methylcyclohexyl)oxy]phenyl}-2-oxopyridin-1(2H)-yl]-2-methyl-2-(methylsulfonyl)butanamide] | 64 | 2 | 0.5
8 | CC1(O)CCC(Oc2ccc(-c3ccn(CC[C@](C)(C(=O)NO)S(C)(=O)=O)c(=O)c3)cc2)CC1 (stereo partly drawn) [Example 10-A, (2R)-N-hydroxy-4-[4-{4-[(4-hydroxy-4-methylcyclohexyl)oxy]phenyl}-2-oxopyridin-1(2H)-yl]-2-methyl-2-(methylsulfonyl)butanamide] | > 64 | 1 | 0.25
9 | CC(CCn1ccc(-c2ccc3cccnc3c2)cc1=O)(C(=O)NO)S(C)(=O)=O (stereo not drawn) [Example 36, N-hydroxy-2-methyl-2-(methylsulfonyl)-4-(2-oxo-4-quinolin-7-ylpyridin-1(2H)-yl)butanamide] | > 64 | 8 | 4
10 | Cc1cc2cc(-c3ccn(CC[C@](C)(C(=O)NO)S(C)(=O)=O)c(=O)c3)ccc2[nH]1 [Example 19, (2R)-N-hydroxy-2-methyl-4-[4-(2-methyl-1H-indol-5-yl)-2-oxopyridin-1(2H)-yl]-2-(methylsulfonyl)butanamide] | > 64 | 2 | 1
11 | Cc1cnc(-c2ccc(-c3ccn(CC[C@](C)(C(=O)NO)S(C)(=O)=O)c(=O)c3)cc2)o1 [Example 38, (2R)-N-hydroxy-2-methyl-4-{4-[4-(5-methyl-1,3-oxazol-2-yl)phenyl]-2-oxopyridin-1(2H)-yl}-2-(methylsulfonyl)butanamide] | > 64 | 0.5 | 0.06
